Among the data in patent US7652011B2, “4-[(arylmethyl)aminomethyl]piperidine derivatives, their preparation and their therapeutic application” (sanofi-aventis, priority 2003, dated 2010) are melting point values, retold here.

In general, melting point refers to the temperature, or range, at which the solid turns liquid. `Cn1cccc1CNCC1(c2cccc(C(F)(F)F)c2)CCN(C(=O)CN2CCN(c3cnccn3)CC2)CC1` [Compound 1, [(1-Methyl-1H-pyrrol-2-yl)methyl][[1-[(4-pyrazin-2-ylpiperazin-1-yl)acetyl]-4-[3-(trifluoromethyl)phenyl]piperidin-4-yl]methyl]amine] came in with a melting point of 104 to 105 °C.
